Article PMC10920834, “Synthesis, anticancer activity, and molecular docking of half-sandwich iron(II) cyclopentadienyl complexes with maleimide and phosphine or phosphite ligands” (Scientific Reports, 2024)
Like-named read-outs stand apart in the source and are kept apart here.

Tests used:
HL-60 cells [1] = tested on: HL-60 cells; set-up: method as in PMID 26486993; conditions: studied previously; read-out: IC50 HL-60 cells (ruthenium analogues); cited from earlier work
PBM cells [2] = conditions: cited from earlier work; for IC50: studied previously, read-out: IC50 PBM cells (ruthenium analogues)
[3] = tested on: doxorubicin-sensitive cells (Colo205); set-up: method as in PMID 37187089; conditions: cited from earlier work
[4] = tested on: doxorubicin-resistant (Colo320) cells; set-up: method as in PMID 37187089; conditions: cited from earlier work
PBM cells [5] = experiment: Cell viability resazurin assay, PBM cells; type: cell-based, human; conditions: for viability of PBM cells relative to control: ± SD
Summary of the method: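 Human PBM cells isolated from healthy-donor buffy coats by density gradient, seeded at 5 × 10^4 per well in RPMI 1640 and exposed to iron(II) complexes at 0.5–250 μM for 2 h and 24 h at 37 °C. Resazurin added for 2 h and fluorescence read at 530/590 nm; IC50 from percentage of control, octuplicate.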

A549 cells = experiment: Cell viability resazurin assay, A549 cells; type: cell-based, human; conditions: for viability of A549 cells relative to control: ± SD
Summary of the method: (§1)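 A549 cells (5 × 10^3/well, adhered 24 h) or HL-60 cells (1 × 10^4/well) exposed to iron(II) complexes at 0.5–250 μM for 2 h and 24 h at 37 °C. Resazurin then added for 2 h; fluorescence (ex 530, em 590 nm) expressed as percent of control, IC50 calculated, octuplicate.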

HL-60 cells [6] = experiment: Cell viability resazurin assay, HL-60 cells; type: cell-based, human; conditions: for viability of HL-60 cells relative to control: ± SD
Summary of the method: as §1

HL-60 cells [7] = experiment: Alkaline comet assay, HL-60 cells; type: cell-based, human; conditions: 2 h incubation, 1-50 μM tested
Method: Selected iron(II) complexes were added to the suspension of the cells to give final concentrations of 1, 5, 10, 25 and 50 μM. HL-60 and A549 cells were incubated with the complexes for 2 h at 37 °C. The comet assay was performed under alkaline conditions according to the procedure of Tokarz et al.[45]. […] Next, the cells were lysed for 1 h at 4 °C in a buffer containing 2.5 M NaCl, 0.1 M EDTA, 10 mM Tris, 1% Triton X-100, pH 10. Following the lysis, the slides were placed in an electrophoresis unit. DNA was allowed to unwind for 20 min in the solution containing 300 mM NaOH and 1 mM EDTA, pH > 13. […] After separation, the slides were washed in water, drained, stained with 2 μg/ml DAPI and covered with cover slips. As a prevention from additional DNA damage, the procedure described above was conducted under limited light or in the dark. Each experiment included the positive control—cells incubated with H2O2 at 20 µM for 15 min on ice (data not shown).
The comets obtained after single cell gel electrophoresis were analysed in the following manner. […] Hundred images of singular comets were randomly selected from each sample and the mean value of DNA in comet tail was taken as an index of DNA damage (expressed in percent).

For `O=C1C=CC(=O)[N-]1.[C-]#[O+].[Ru+2].c1cc[cH-]c1.c1ccc(P(c2ccccc2)c2ccccc2)cc1` [ruthenium complex 2b, CpRu(CO)(PPh3) (η^1-N-maleimidato)], the IC50 (HL-60 cells [1]) is given as 35.6 µM, the “cytotoxicity toward PBM cells of ruthenium analogues, in words” value (PBM cells [2]; listed as 2b-Ru) is given as “cytotoxic” and the IC50 (PBM cells [2]) is given as 8.48 µM.
For `CCOP(OCC)OCC.O=C1C=CC(=O)[N-]1.[C-]#[O+].[Ru+2].c1cc[cH-]c1` [ruthenium(II) complex 3a, CpRu(CO)(P(OEt)3)(η^1-N-maleimidato)], the IC50 (HL-60 cells [1]) is listed as 12.2 µM and the IC50 (PBM cells [2]) is listed as > 250 µM.
For `O=S(=O)([O-])C(F)(F)F.[C-]#[O+].[Fe+2].c1cc[cH-]c1.c1ccc(Cn2ccnc2)cc1.c1ccc(P(c2ccccc2)c2ccccc2)cc1` [[CpFe(CO)(PPh3) (1-benzylimidazole)](CF3SO3)], the IC50 [3] is given as 1.26 ± 0.11 µM and the IC50 [4] is given as 2.21 ± 0.26 µM.
With `CCOP(OCC)OCC.O=C1C=CC(=O)[N-]1.[C-]#[O+].[Fe+2].c1cc[cH-]c1` [3a] the “viability of PBM cells relative to control” value (PBM cells [5]; 2 h incubation, 0.5 µM) was 83.62 ± 1.79%, the “viability of PBM cells relative to control” value (PBM cells [5]; 2 h incubation, 1 µM) was 82.59 ± 3.38% and the “viability of PBM cells relative to control” value (PBM cells [5]; 2 h incubation, 2.5 µM) was 83.52 ± 1.8%. For the same compound, the “viability of PBM cells relative to control” value (PBM cells [5]; 2 h incubation, 5 µM) was 86.67 ± 4.18%, the “viability of PBM cells relative to control” value (PBM cells [5]; 2 h incubation, 10 µM) was 89.89 ± 2.91% and the “viability of PBM cells relative to control” value (PBM cells [5]; 2 h incubation, 25 µM) was 98.19 ± 4.2%. The “viability of PBM cells relative to control” value (PBM cells [5]; 2 h incubation, 50 µM) was 98.5 ± 3.37%, the “viability of PBM cells relative to control” value (PBM cells [5]; 2 h incubation, 100 µM) was 97.79 ± 4.89% and the “viability of PBM cells relative to control” value (PBM cells [5]; 2 h incubation, 250 µM) was 98.17 ± 2.87%. The IC50 (PBM cells [5]; 24 h incubation) was > 250 µM, the “viability of PBM cells relative to control” value (PBM cells [5]; 24 h incubation, 0.5 µM) was 102.49 ± 0.39% and the “viability of PBM cells relative to control” value (PBM cells [5]; 24 h incubation, 1 µM) was 104.14 ± 1.97%. For the same compound, the “viability of PBM cells relative to control” value (PBM cells [5]; 24 h incubation, 2.5 µM) was 104.31 ± 0.56%, the “viability of PBM cells relative to control” value (PBM cells [5]; 24 h incubation, 5 µM) was 102.43 ± 1.43% and the “viability of PBM cells relative to control” value (PBM cells [5]; 24 h incubation, 10 µM) was 99.21 ± 0.78%. For the same compound, the “viability of PBM cells relative to control” value (PBM cells [5]; 24 h incubation, 25 µM) was 98.34 ± 0.97%, the “viability of PBM cells relative to control” value (PBM cells [5]; 24 h incubation, 50 µM) was 98.58 ± 2.84% and the “viability of PBM cells relative to control” value (PBM cells [5]; 24 h incubation, 100 µM) was 102.37 ± 3.3%. The “viability of PBM cells relative to control” value (PBM cells [5]; 24 h incubation, 250 µM) was 94.72 ± 3.88%, the “viability of A549 cells relative to control” value (A549 cells; 2 h incubation, 0.5 µM) was 100.11 ± 13.46% and the “viability of A549 cells relative to control” value (A549 cells; 2 h incubation, 1 µM) was 89.02 ± 8.33%. For the same compound, the “viability of A549 cells relative to control” value (A549 cells; 2 h incubation, 2.5 µM) was 86.36 ± 7.43%, the “viability of A549 cells relative to control” value (A549 cells; 2 h incubation, 5 µM) was 85.49 ± 7.39% and the “viability of A549 cells relative to control” value (A549 cells; 2 h incubation, 10 µM) was 83.61 ± 12.73%. The “viability of A549 cells relative to control” value (A549 cells; 2 h incubation, 25 µM) was 82.29 ± 5.9%, the “viability of A549 cells relative to control” value (A549 cells; 2 h incubation, 50 µM) was 82.69 ± 3.89% and the “viability of A549 cells relative to control” value (A549 cells; 2 h incubation, 100 µM) was 74.97 ± 6.81%. For the same compound, the “viability of A549 cells relative to control” value (A549 cells; 2 h incubation, 250 µM) was 68.50 ± 8.56%, the IC50 (A549 cells; 24 h incubation) was > 250 µM and the “cytotoxicity against A549 cells, in words” value (A549 cells; 24 h incubation) was “did not show cytotoxicity”. The “viability of A549 cells relative to control” value (A549 cells; 24 h incubation, 0.5 µM) was 80.91 ± 12.58%, the “viability of A549 cells relative to control” value (A549 cells; 24 h incubation, 1 µM) was 70.97 ± 10.92% and the “viability of A549 cells relative to control” value (A549 cells; 24 h incubation, 2.5 µM) was 68.70 ± 18.12%. For the same compound, the “viability of A549 cells relative to control” value (A549 cells; 24 h incubation, 5 µM) was 68.55 ± 13.94%, the “viability of A549 cells relative to control” value (A549 cells; 24 h incubation, 10 µM) was 71.63 ± 17.67% and the “viability of A549 cells relative to control” value (A549 cells; 24 h incubation, 25 µM) was 131.92 ± 19.26%. For the same compound, the “viability of A549 cells relative to control” value (A549 cells; 24 h incubation, 50 µM) was 131.87 ± 25.64%, the “viability of A549 cells relative to control” value (A549 cells; 24 h incubation, 100 µM) was 153.54 ± 19.26% and the “viability of A549 cells relative to control” value (A549 cells; 24 h incubation, 250 µM) was 95.62 ± 13.21%. The “A549 cell viability, increase with increasing concentrations to” value (A549 cells; 24 h incubation, concentration not given) was 153%, the “viability of HL-60 cells relative to control” value (HL-60 cells [6]; 2 h incubation, 0.5 µM) was 103.48 ± 2.11% and the “viability of HL-60 cells relative to control” value (HL-60 cells [6]; 2 h incubation, 1 µM) was 105.44 ± 1%. The “viability of HL-60 cells relative to control” value (HL-60 cells [6]; 2 h incubation, 2.5 µM) was 102.35 ± 0.54%, the “viability of HL-60 cells relative to control” value (HL-60 cells [6]; 2 h incubation, 5 µM) was 100.13 ± 1.86% and the “viability of HL-60 cells relative to control” value (HL-60 cells [6]; 2 h incubation, 10 µM) was 101.73 ± 3.47%. For the same compound, the “viability of HL-60 cells relative to control” value (HL-60 cells [6]; 2 h incubation, 25 µM) was 97.68 ± 2.4%, the “viability of HL-60 cells relative to control” value (HL-60 cells [6]; 2 h incubation, 50 µM) was 93.65 ± 1.73% and the “viability of HL-60 cells relative to control” value (HL-60 cells [6]; 2 h incubation, 100 µM) was 87.54 ± 2.53%. For the same compound, the “viability of HL-60 cells relative to control” value (HL-60 cells [6]; 2 h incubation, 250 µM) was 30.8 ± 1.55%, the IC50 (HL-60 cells [6]; 24 h incubation) was 15.9 µM and the “viability of HL-60 cells relative to control” value (HL-60 cells [6]; 24 h incubation, 0.5 µM) was 107.33 ± 1.24%. For the same compound, the “viability of HL-60 cells relative to control” value (HL-60 cells [6]; 24 h incubation, 1 µM) was 109.38 ± 4%, the “viability of HL-60 cells relative to control” value (HL-60 cells [6]; 24 h incubation, 2.5 µM) was 112.36 ± 1.5% and the “viability of HL-60 cells relative to control” value (HL-60 cells [6]; 24 h incubation, 5 µM) was 106.89 ± 3.43%. The “viability of HL-60 cells relative to control” value (HL-60 cells [6]; 24 h incubation, 10 µM) was 89 ± 3.39%, the “viability of HL-60 cells relative to control” value (HL-60 cells [6]; 24 h incubation, 25 µM) was 46.28 ± 0.82% and the “viability of HL-60 cells relative to control” value (HL-60 cells [6]; 24 h incubation, 50 µM) was 38.62 ± 0.52%. The “viability of HL-60 cells relative to control” value (HL-60 cells [6]; 24 h incubation, 100 µM) was 39.69 ± 0.83%, the “viability of HL-60 cells relative to control” value (HL-60 cells [6]; 24 h incubation, 250 µM) was 17.5 ± 0.5% and the “DNA damage in HL-60 cells (alkaline comet assay), in words” value (HL-60 cells [7]) was “DNA damage at the concentrations of 10, 25 and 50 μM”.
In the case of `O=C1C=CC(=O)[N-]1.[C-]#[O+].[Ru+2].c1cc[cH-]c1.c1ccc(P(c2ccccc2)c2ccccc2)cc1` [2a-Ru], the “cytotoxicity toward PBM cells of ruthenium analogues, in words” value (PBM cells [2]) is listed as “non-toxic”.
